Results on 8 compounds are retold here after PubChem BioAssay (NCI).

Test systems include OVCAR-5 ovarian; COLO 205 colon; SW-620 colon; RXF 393 renal; SK-MEL-2 melanoma; SK-OV-3 ovarian; MOLT-4 leukemia; TK-10 renal; SN12C renal; HCT-116 colon.
Test in all cases: inhibition of tumour cell growth, NCI panel, 48 h

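A five-concentration, 48-hour dose response in 96-well plates underlies each endpoint, interpolated linearly between surrounding concentrations. At the GI50, growth is halved. At the TGI there is no net growth.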

On to `COc1ccc2c(c1)C(=O)/C(=C/c1ccc(OCC(=O)c3ccc(Cl)cc3)cc1)O2`, for which the GI50 is 11.5 µM with OVCAR-5 ovarian; 4.64 µM in the assay on COLO 205 colon; 3.48 µM in the assay with SW-620 colon; 17.3 µM in the assay with RXF 393 renal; 26.7 µM with SK-MEL-2 melanoma; 62.5 µM with SK-OV-3 ovarian. In addition, the GI50 with MOLT-4 leukemia was 3.03 µM; in the assay on TK-10 renal it was 26.5 µM; in the assay with SN12C renal, 17.3 µM; with HCT-116 colon it was 3.07 µM. The TGI with OVCAR-5 ovarian was 23.9 µM; in the assay on COLO 205 colon it was 18 µM; in the assay on SW-620 colon, 10.6 µM; with RXF 393 renal, 42.4 µM; with SK-MEL-2 melanoma, 99.9 µM; in the assay with SK-OV-3 ovarian, over 100 µM. Moreover, the TGI with MOLT-4 leukemia is 12.8 µM; with TK-10 renal it was 43.4 µM; with SN12C renal, 63.9 µM; in the assay with HCT-116 colon, 13 µM.
For the compound `Cn1cc(-c2csc(-c3cn(C)c4ncccc34)n2)c2ccccc21`, the GI50 with OVCAR-5 ovarian is 0.876 µM; in the assay with COLO 205 colon, 0.229 µM; in the assay with SW-620 colon it was 0.26 µM; in the assay on RXF 393 renal it was 0.299 µM; in the assay on SK-MEL-2 melanoma, 0.405 µM; in the assay with SK-OV-3 ovarian, 0.544 µM. For the same compound, the GI50 was 0.613 µM with MOLT-4 leukemia, 1 µM in the assay with TK-10 renal, 3.07 µM in the assay with SN12C renal and 0.354 µM in the assay with HCT-116 colon. Besides, the TGI was 23.8 µM in the assay with OVCAR-5 ovarian; 1.05 µM in the assay on COLO 205 colon; over 100 µM with SW-620 colon; 2.96 µM in the assay on RXF 393 renal; 16.8 µM with SK-MEL-2 melanoma; 15.7 µM with SK-OV-3 ovarian. The TGI is over 52.2 µM with MOLT-4 leukemia, 19.4 µM in the assay on TK-10 renal, over 100 µM in the assay with SN12C renal and 19 µM with HCT-116 colon.
Take `CC1(C)CCC(CN2CCN(c3ccc(C(=O)NS(=O)(=O)c4ccc(NCC5CCOCC5)c([N+](=O)[O-])c4)c(Oc4cnc5[nH]ccc5c4)c3)CC2)=C(c2ccc(Cl)cc2)C1`: the GI50 in the assay with OVCAR-5 ovarian was 3.19 µM; in the assay on COLO 205 colon, 1.95 µM; in the assay with SW-620 colon, 3.95 µM; with RXF 393 renal, 1.57 µM; in the assay with SK-MEL-2 melanoma, 1.63 µM; in the assay on SK-OV-3 ovarian, 3.16 µM. The GI50 in the assay with MOLT-4 leukemia is 2.15 µM; in the assay with TK-10 renal it was 2.26 µM; with SN12C renal, 2.82 µM; with HCT-116 colon, 3.36 µM. The TGI turned out to be 11.6 µM with OVCAR-5 ovarian; 3.7 µM in the assay with COLO 205 colon; 16.8 µM with SW-620 colon; 3.48 µM in the assay with RXF 393 renal; 3.36 µM in the assay with SK-MEL-2 melanoma; 10.9 µM in the assay on SK-OV-3 ovarian. Besides, the TGI is 5.27 µM with MOLT-4 leukemia, 6.34 µM in the assay on TK-10 renal, 11.8 µM in the assay on SN12C renal and 11.8 µM in the assay on HCT-116 colon.
As to `CCN(CC)c1ccc(/C=C/C2=[N+](C)c3ccccc3C2(C)C)cc1`, the GI50 in the assay with OVCAR-5 ovarian was 1.01 µM; in the assay on COLO 205 colon it was 0.161 µM; in the assay on SW-620 colon, 0.36 µM; in the assay on RXF 393 renal it was 0.75 µM; with SK-MEL-2 melanoma it was 0.487 µM; in the assay with SK-OV-3 ovarian it was 0.275 µM. In addition, the GI50 is 0.557 µM in the assay on MOLT-4 leukemia, 0.373 µM with TK-10 renal, 0.342 µM with SN12C renal and 0.181 µM in the assay on HCT-116 colon. The TGI is 23.7 µM with OVCAR-5 ovarian; 0.392 µM in the assay with COLO 205 colon; 19.4 µM in the assay with SW-620 colon; 16.5 µM in the assay on RXF 393 renal; over 35.9 µM in the assay on SK-MEL-2 melanoma; 2.79 µM in the assay on SK-OV-3 ovarian. Further, the TGI in the assay with MOLT-4 leukemia is over 100 µM; in the assay on TK-10 renal it was 10.6 µM; in the assay with SN12C renal, 13.8 µM; in the assay with HCT-116 colon, 22.1 µM.
On to `C=C(CNCCc1ccc(O)cc1)[C@@H]1CC[C@]2(CO)CC[C@]3(C)[C@H](CC[C@@H]4[C@@]5(C)CCC(NCCO)C(C)(C)[C@@H]5CC[C@]43C)[C@@H]12` (some centres undefined), for which the GI50 in the assay on OVCAR-5 ovarian was 1.67 µM; in the assay on COLO 205 colon, 1.54 µM; in the assay with SW-620 colon, 1.27 µM; in the assay with RXF 393 renal, 1.27 µM; in the assay with SK-MEL-2 melanoma, 1.79 µM; with SK-OV-3 ovarian, 1.85 µM. In addition, the GI50 was 0.657 µM with MOLT-4 leukemia, 1.7 µM in the assay with TK-10 renal, 1.75 µM in the assay on SN12C renal and 0.351 µM in the assay with HCT-116 colon. The TGI was determined as 3.31 µM with OVCAR-5 ovarian; 3.13 µM with COLO 205 colon; 2.68 µM in the assay on SW-620 colon; 2.63 µM with RXF 393 renal; 3.38 µM with SK-MEL-2 melanoma; 3.52 µM with SK-OV-3 ovarian. Further, the TGI was 2.92 µM in the assay with MOLT-4 leukemia, 3.14 µM in the assay with TK-10 renal, 3.25 µM with SN12C renal and 1.19 µM with HCT-116 colon.
As to `CCN1C(=O)N(CC)C2C1NN=c1s/c(=C\c3ccc([N+](=O)[O-])cc3)c(=O)n12` (centres undefined), the GI50 in the assay with OVCAR-5 ovarian is 1.22 µM; with COLO 205 colon it was 0.469 µM; with SW-620 colon, 0.379 µM; in the assay on RXF 393 renal it was 0.451 µM; in the assay on SK-MEL-2 melanoma it was 1.16 µM; in the assay on SK-OV-3 ovarian it was 0.698 µM. For the same compound, the GI50 in the assay with MOLT-4 leukemia is 0.577 µM; in the assay with TK-10 renal it was over 35.4 µM; in the assay on SN12C renal, 0.677 µM; in the assay with HCT-116 colon it was 0.427 µM. Moreover, the TGI was over 91.1 µM in the assay on OVCAR-5 ovarian; 11.8 µM with COLO 205 colon; over 100 µM in the assay with SW-620 colon; over 100 µM in the assay on SK-MEL-2 melanoma; 49.5 µM with SK-OV-3 ovarian; over 100 µM in the assay with MOLT-4 leukemia. Further, the TGI in the assay on TK-10 renal was over 100 µM; in the assay on SN12C renal, over 64.4 µM; in the assay with HCT-116 colon, over 100 µM.
For the compound `Cc1ccc(NC(=O)CCC(=O)C2CC(=O)CCC2=O)cc1C` (centres undefined), the TGI in the assay on OVCAR-5 ovarian, in the assay with COLO 205 colon, in the assay with SW-620 colon, in the assay with RXF 393 renal, in the assay with SK-MEL-2 melanoma and in the assay with SK-OV-3 ovarian was over 100 µM in each case. The TGI with MOLT-4 leukemia, in the assay on TK-10 renal, in the assay with SN12C renal and in the assay with HCT-116 colon was over 100 µM in each case.
On to `CC1OC(OC2C(OC3CCC4(C)C(CCC5(C)C4CC=C4C6CC(C)(C)CCC6(CO)C(O)CC45C)C3(C)C)OC(C(=O)O)C(OC3OC(COC4OC(CO)C(O)C(O)C4O)C(O)C(O)C3O)C2O)C(O)C(O)C1O` (centres undefined), for which the GI50 with OVCAR-5 ovarian is 5.17 µM; with COLO 205 colon, 1.75 µM; in the assay on SW-620 colon it was 12.5 µM; with RXF 393 renal, 8.94 µM; with SK-MEL-2 melanoma it was 8.57 µM; in the assay with SK-OV-3 ovarian, 6.08 µM. Also, the GI50 in the assay with MOLT-4 leukemia is 2.35 µM; in the assay with TK-10 renal, 16.1 µM; in the assay with SN12C renal it was 2.46 µM; in the assay on HCT-116 colon, 2.05 µM. Also, the TGI in the assay on OVCAR-5 ovarian came out at 16.7 µM; in the assay on COLO 205 colon it was 4.39 µM; with SW-620 colon, 24.2 µM; in the assay on RXF 393 renal, 19.8 µM; in the assay on SK-MEL-2 melanoma, 20.1 µM; in the assay on SK-OV-3 ovarian, 18 µM. The TGI in the assay with MOLT-4 leukemia turned out to be 8.42 µM; in the assay on TK-10 renal it was 28.4 µM; in the assay with SN12C renal, 9.19 µM; in the assay on HCT-116 colon, 9.21 µM.
